Data reported in US7964565B2, “Method of inhibiting inflammation in a mammal by administering Bcl protein” (University of Washington Center for Commercialization, a …, priority 2004, dated 2011).

Legend:
[1] = test system: C57BL/6 mice, hind-limb skeletal muscle ischemia-reperfusion injury; experiment: Hind-limb tourniquet ischemia-reperfusion, plasma creatine kinase; assay type: in vivo, mouse; conditions: tourniquet 90 min, reperfusion 3 hours
Procedure: Skeletal muscle was made ischemic by applying a tourniquet to the hind-limbs of C57BL/6 mice for 90 minutes, then removing the tourniquet and allowing reperfusion for an additional 3 hours. Mice were treated with active peptide 1 (SEQ ID NO:17) or peptide 2 (SEQ ID NO:18) or peptide 3 (SEQ ID NO:19), or with the scrambled (control) peptide (SEQ ID NO:20). Peptide-1 (SEQ ID NO:17) is from the BH4 region of Bcl-2. Peptide-2 (SEQ ID NO:18) is from the first alpha helix of A1. Peptide-3 (SEQ ID NO:19) is from the BH4 region of Bcl-XL. The amino acid sequences of peptide 1 (SEQ ID NO:17), peptide 2 (SEQ ID NO:18), peptide 3 (SEQ ID NO:19), and the scrambled (control) peptide (SEQ ID NO:20) are set forth in Table 1.
At the end of the 3 hours of reperfusion the mice were killed, and blood was taken for determination of plasma creatine kinase (CK) concentration. The CK concentration was used as an indicator of muscle injury. Elevated levels of CK indicate higher levels of muscle injury. […] The CK concentration for peptide 1 (SEQ ID NO:17) treated mice was 19,020+/−5481 IU/L (n=12) compared with control peptide (SEQ ID NO:20) where CK concentration was 60,530+/−5759 IU/L (n=12). The CK concentration for peptide 2 (SEQ ID NO:18) treated mice was 33,860+/−5997 IU/L (n=11) compared with control peptide (SEQ ID NO:20) where CK concentration was 69,430+/−11,170 IU/L (n=12). The CK concentration for peptide 3 (SEQ ID NO:19) treated mice was 49,500+/−3,901 IU/L (n=5) compared with control peptide (SEQ ID NO:20) where CK concentration was 80,880+/−11,430 IU/L (n=6).

[2] = test system: C57BL/6 mice, hind limb skeletal muscle ischemia-reperfusion injury; experiment: Hind limb ischemia-reperfusion by aortic cross-clamp, plasma creatine kinase; assay type: in vivo; conditions: protein injected i.p. the day before 90 min hind limb ischemia and 180 min reperfusion; 12 mice per group; rBcl-2 1 μg per mouse vs combined rUbiquitin/vehicle; rA1 vs rUbiquitin
Procedure: Mouse skeletal muscle was made ischemic by cross-clamping the aorta distal to the renal artery for 90 minutes, then the clamp was removed and hind limb reperfusion continued for 3 hours. At the end of reperfusion (3 hours after clamp removal) the mice were killed, and the concentration of plasma creatine kinase (CK) was measured and used as an indicator of injury (creatine kinase concentration increases as a result of skeletal muscle injury).
Blood from EμT-Bcl-2 mice and their littermate control mice was drawn into heparin and plasma was extracted by centrifugation. One ml of plasma from EμT-Bcl-2 mice, or one ml of plasma from littermate control mice, was injected into the peritoneum of C57BL/6 mice the day before the mice were subjected to 90 minutes of ischemia and 3 hours of reperfusion as described in Example 1 herein. Blood was drawn from the mice and plasma CK concentration was determined at the end of reperfusion.
Control Jaws II cells expressed only EGFP. […]
Medium from cell cultures of hBcl-2-Jaws II cells and EGFP-Jaws II cells was harvested 24 hours after the start of incubation and concentrated approximately 10-fold using centrifugal filters with a molecular size cut-off of approximately 3 kD. […] Plasma was extracted from the mice after ischemia-reperfusion, and plasma CK concentration was determined. […]

[3] = experiment with peptide 2, n=11 peptide, n=12 control

Molecule	plasma CK concentration ([1]; experiment with peptide 1, n=12 per group)	plasma CK concentration [1, 3]	plasma CK concentration ([1]; experiment with peptide 3, n=5 peptide, n=6 control)	plasma creatine kinase levels vs control [2]
control peptide: scrambled (control) peptide; TWHMYGNQRDYIGDRSKIVYKLEYE (SEQ ID NO:20)	60,530+/−5759 IU/L	69,430+/−11,170 IU/L	80,880+/−11,430 IU/L	
peptide 2: from the first alpha helix of A1; FGYIYRLAQDYLQCVLQIPZPGSGP (SEQ ID NO:18)		33,860+/−5997 IU/L		
rA1: human A1 minus 25 amino acids at the carboxy terminal and addition of 6 histidine on the remaining protein (protein, listed as Homo sapiens) MTDCEFGYIYRLAQDYLQCVLQIPQPGSGPSKTSRVLQNVAFSVQKEVEKNLKSCLDNVNVVSVDTARTLFNQVMEKEFEDGIINWGRIVTIFAFEGILIKKLLRQQIAPDVDTYKEISYFVAEFIMNNTGEWIRQNGGWENGFVKKFEPKSHHHHHH				significantly (p<0.05) lower
